Data on 2 compounds can be found in patent US11964969B2, “Crystal forms of thiazole compound and application thereof” (PHAENO THERAPEUTICS CO., LTD, priority 2018, dated 2024).

Each structure is given as a SMILES string.

Series [1] in a line: Hygroscopicity study by dynamic vapor sorption (DVS). The settings on record: 25° C. and 80% RH. The class given is physicochemical. The protocol: Dynamic Vapor Sorption (DVS) Method Used in the Present Disclosure
Instrument model: SMS DVS Advantage dynamic vapor sorption apparatus
Test condition: The sample (10˜15 mg) was taken and put into a DVS sample pan for testing.
The detailed DVS parameters were as follows:
Equilibration: dm/dt=0.01%/min (The shortest time: 10 min, and the longest time: 180 min)
Drying: Dried for 120 min at 0% RH
RH (%) test gradient: 10%
Range of RH (%) test gradient: 0%-90%-0%
The classification of hygroscopicity evaluation was as follows:
Example 4: Study on the Hygroscopicity of the Crystal Form B of the Compound of Formula (II)
SMS DVS Advantage dynamic vapor sorption apparatus
10-15 mg of the crystal form B of the compound of formula (II) was taken and put into a DVS sample pan for testing.

A short description of series [2]: Evaluation of pharmacokinetics of the compound in mice. The class given is in vivo. Particulars: male, mouse, plasma, Balb/c mice. How it is done: Assay Example 2: Evaluation of Pharmacokinetics of the Compound
Object of the assay: to test the pharmacokinetics of the compound in mice in vivo.
Balb/c mice (male, 18-22 g, 6-8 weeks old, from Shanghai SLAC)
The pharmacokinetic profile of the compound after intravenous injection and oral administration in the rodents was tested by the standard protocol. The candidate compound was formulated into a corresponding solution, and administered through a single intravenous injection (1.0 mg/kg, 5% of DMSO/95% of 20% hydroxypropyl-beta-cyclodextrin) or an intragastric administration (1.0 mg/kg, 0.5% of methylcellulose MC4000). The whole blood sample was collected within 24 hours, and centrifuged at 3000 g for 15 minutes. […] The resulting mixture was centrifuged and the supernatant was taken out, to which an equal volume of water was added and centrifuged. The supernatant was taken out, and injected as a sample to quantitatively analyze the plasma drug concentration by LC-MS/MS analysis method. The pharmacokinetic parameters were calculated, such as peak concentration, peak time, clearance rate, half-life, area under the drug-time curve, bioavailability, etc.

Series [3] has as its system GHSV-UL 46 strain of herpes simplex virus-1 (HSV-1). The experiment in a line: Assay of cytopathic effect (CPE) of herpes simplex virus-1 in Vero E6 cells. The class given is cell-based. The settings on record: Human alphaherpesvirus 1, Vero C1008, 120 h, read-out: HSV-1 Cytopathic Assay EC50. How it is done: Assay Example 1: Assay of Cytopathic Effect of Herpes Simplex Virus-1 (Evaluation In Vitro)
The assay of cytopathic effect (CPE) was used to determine the antiviral activity of the compound against the GHSV-UL 46 strain of herpes simplex virus-1 (HSV-1).
Virus: HSV-1 GHSV-UL46, ATCC #VR-1544
Cell: African green monkey kidney cell, Vero E6, donated by Wuhan Instititute of Virology, Chinese Academy of Sciences.
Cell growth medium: 500 ml of DMEM medium+50 ml of fetal bovine serum+5 ml of double antibody+5 ml of non-essential amino acids.
Medium for the assay of cytopathic effect: 500 ml of DMEM medium+10 ml of fetal bovine serum+5 ml of double antibody+5 ml of non-essential amino acids.
1.4. […]
2.2. […] Each test compound was measured at 8 concentrations in duplicate. […]
3.4. The absorbance value of each well of the cell plate was read with a microplate reader at a wavelength of 450 nm, and 630 nm was used as a reference wavelength. The value of raw data was the absorbance at 450 nm minus the absorbance at 630 nm (raw data=OD450−OD630).
4.1. The antiviral activity of the test compound (% Inhibition) was calculated using the following equation:
[formula] wherein sample is the absorbance value of compound test wells, cell control is the average absorbance value of cell control wells, and virus control is the average absorbance value of virus control wells. […]

`CS(=O)(=O)O.Cc1nc(N(C)C(=O)[C@@H]2Cc3ccc(-c4ccccn4)cc3C2)sc1S(N)(=O)=O`: in series [1], the Classification of hygroscopicity entry is “slightly hygroscopic” and the “Weight increase by moisture absorption ΔW” value is 1.158%.
For the compound `Cc1nc(N(C)C(=O)[C@@H]2Cc3ccc(-c4ccccn4)cc3C2)sc1S(N)(=O)=O` [Compound of formula (I)], in series [2] (intragastric (oral) administration 1.0 mg/kg, read-out: Bioavailability F), the bioavailability is 75%. Moreover, the AUC in series [2] (intragastric (oral) administration 1.0 mg/kg, read-out: Concentration integral AUC) came out at 24.4 µM·h. For the same compound, the clearance in series [2] (single intravenous injection 1.0 mg/kg, read-out: Clearance rate) is 1.2 mL/min/kg. For the same compound, the half-life in series [2] (single intravenous injection 1.0 mg/kg, read-out: Half-life T1/2 (converted)) is 360 min. Moreover, in series [3], the concentration giving a half-maximal response (EC50) turned out to be 7 nM.
